According to US9890152B2 (Genentech, Inc., priority 2012, dated 2018):

Each molecule was assayed against T1, EGFR del746-750 T790M (Homo sapiens, UniProt P00533, DEL746-750/T790M) (assay: EGFR del746-750 T790M biochemical assay (Caliper mobility shift)). Conditions: 5 μM ATP, 30 min, room temperature; apparent Ki (Morrison) converted by Cheng-Prusoff, Km of ATP 2.1 μM; read-out: EGFR(T790M/d746-750) Ki.
T1 construct: purchased Carna Biosciences 08-528
T1 sequence (P00533 with tags, fused parts or gaps DEL746-750/T790M limits assumed): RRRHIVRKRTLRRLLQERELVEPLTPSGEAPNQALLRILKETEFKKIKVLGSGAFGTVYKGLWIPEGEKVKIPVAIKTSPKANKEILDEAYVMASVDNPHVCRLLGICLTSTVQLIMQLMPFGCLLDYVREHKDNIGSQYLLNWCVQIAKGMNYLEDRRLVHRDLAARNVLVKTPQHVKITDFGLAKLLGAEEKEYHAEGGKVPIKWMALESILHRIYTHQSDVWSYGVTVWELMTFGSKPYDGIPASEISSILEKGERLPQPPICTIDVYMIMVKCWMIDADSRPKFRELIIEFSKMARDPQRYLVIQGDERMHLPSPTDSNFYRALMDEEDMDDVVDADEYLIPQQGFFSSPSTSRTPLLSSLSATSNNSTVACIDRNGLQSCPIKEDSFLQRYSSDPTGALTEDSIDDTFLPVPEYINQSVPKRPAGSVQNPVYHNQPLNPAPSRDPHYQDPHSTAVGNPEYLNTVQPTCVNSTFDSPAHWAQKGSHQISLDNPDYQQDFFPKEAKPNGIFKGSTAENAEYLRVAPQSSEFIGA
Molecule `CC(C)CC(C)n1c(CO)nc2cnc(Nc3ccnc(-c4cnn(S(=O)(=O)C5CC5)c4)n3)cc21` (stereo not drawn) [Example 478, (6-(2-(1-(cyclopropylsulfonyl)-1H-pyrazol-4-yl)pyrimidin-4-ylamino)-1-(4-methylpentan-2-yl)-1H-imidazo[4,5-c]pyridin-2-yl)methanol] has a Ki of 0.0324 µM. Molecule `CC(C)n1cc(C(=O)NC2CCOCC2)c2cnc(Nc3ccnc(N4CCC(O)C(C)(C)C4)n3)cc21` (racemic) [Example 385, (±)-6-((2-(4-hydroxy-3,3-dimethylpiperidin-1-yl)pyrimidin-4-yl)amino)-l-isopropyl-N-(tetrahydro-2H-pyran-4-yl)-1H-pyrrolo[3,2-c] pyridine-3-carboxamide] has a Ki of 0.00647 µM. Work on `Cc1nc2cnc(Nc3ccnc(-c4cnn(C)c4)n3)cc2n1C(C)C` [Example 365, 1-Isopropyl-2-methyl-N-(2-(1-methyl-1H-pyrazol-4-yl)pyrimidin-4-yl)-1H-imidazo[4,5-c]pyridin-6-amine] yielded a Ki of 0.0465 µM. In the case of `C[C@@H](O)c1nc2cnc(Nc3ccnc(N4CC[C@@H](O)[C@@H](F)C4)n3)cc2n1[C@H](C)C(F)(F)F` [Example 687], the Ki is reported as 0.107 µM. With `C[C@H](n1c([C@@H](C)O)nc2cnc(Nc3ccnc(N4C[C@@H](F)[C@@H](O)[C@@H](F)C4)n3)cc21)C(F)(F)F` [Example 701] the Ki was 0.0044 µM. `COC1CCN(c2nccc(Nc3cc4c(cn3)c(C(=O)NC(C)C)cn4C(C)C)n2)CC1` [Example 120, N,1-diisopropyl-6-((2-(4-methoxypiperidin-1-yl)pyrimidin-4-yl)amino)-1H-pyrrolo[3,2-c]pyridine-3-carboxamide] showed a Ki of 0.0102 µM. `CC(C)n1c(CO)nc2cnc(Nc3ccnc(N4CCC(O)(C(F)(F)F)CC4)n3)cc21` [Example 669] was tested, and the Ki was 0.234 µM. In the case of `C[C@H](n1c([C@@H](C)O)nc2cnc(Nc3ccnc(OCC(C)(C)S(C)(=O)=O)n3)cc21)C(F)(F)F` [Example 609, (R)-1-[6-[2-(2-Methanesulfonyl-2-methylpropoxy)pyrimidin-4-ylamino]-1-((S)-2,2,2-trifluoro-1-methylethyl)-1H-imidazo[4,5-c]pyridin-2-yl]ethanol], the Ki is reported as 0.0131 µM. In the case of `CO[C@@H]1CCN(c2nccc(Nc3cc4c(cn3)nc(CO)n4C(C)C)n2)C[C@H]1C(F)(F)F` (racemic) [Example 629, (1-Isopropyl-6-(2-((±)-(trans)-4-methoxy-3-(trifluoromethyl)piperidin-1-yl)pyrimidin-4-ylamino)-1H-imidazo[4,5-c]pyridin-2-yl)methanol], the Ki is reported as 2.96 µM. In the case of `CO[C@H]1CCN(c2nccc(Nc3cc4c(cn3)nc(CO)n4C(C)C)n2)C[C@@H]1F` (racemic) [Example 527, (±)-{6-[2-((trans)-3-Fluoro-4-methoxypiperidin-1-yl)pyrimidin-4-ylamino]-1-isopropyl-1H-imidazo[4,5-c]pyridin-2-yl}methanol], the Ki is reported as 0.239 µM. With `CO[C@H]1CCN(c2nccc(Nc3cc4c(cn3)nc(C)n4C(C)C)n2)C[C@@H]1F` (racemic) [Example 525, (±)-[2-((trans)-3-Fluoro-4-methoxypiperidin-1-yl)pyrimidin-4-yl]-(1-isopropyl-2-methyl-1H-imidazo[4,5-c]pyridin-6-yl)amine] the Ki was 0.222 µM. In the case of `CC(C)n1c(CO)nc2cnc(Nc3ccnc(N4CC[C@@H](O)[C@H](C(F)(F)F)C4)n3)cc21` (racemic) [Example 627, (±)-(trans)-1-(4-(2-(Hydroxymethyl)-1-isopropyl-1H-imidazo[4,5-c]pyridin-6-ylamino)pyrimidin-2-yl)-3-(trifluoromethyl)piperidin-4-ol], the Ki is reported as 1.57 µM. `CO[C@H]1CCN(c2nccc(Nc3cc4c(cn3)nc(CO)n4C(C)C)n2)C[C@H]1F` (racemic) [Example 526, (±)-{6-[2-((cis)-3-Fluoro-4-methoxypiperidin-1-yl)pyrimidin-4-ylamino]-1-isopropyl-1H-imidazo[4,5-c]pyridin-2-yl}methanol] showed a Ki of 0.0505 µM. Molecule `C[C@H](n1c([C@@H](C)O)nc2cnc(Nc3ccnc(N4CC[C@@](C)(O)[C@@H](F)C4)n3)cc21)C(F)(F)F` (single isomer, unassigned) [Example 621, (3R*,4S*)-3-Fluoro-1-{4-[2-((R)-1-hydroxyethyl)-1-((S)-2,2,2-trifluoro-1-methylethyl)-1H-imidazo[4,5-c]pyridin-6-ylamino]pyrimidin-2-yl}-4-methylpiperidin-4-ol] has a Ki of 0.0217 µM. For `CO[C@H]1CCN(c2nccc(Nc3cc4c(cn3)nc(C)n4C(C)C)n2)C[C@H]1F` (racemic) [Example 608, [2-((3RS,4SR)-3-Fluoro-4-methoxypiperidin-1-yl)pyrimidin-4-yl]-(1-isopropyl-2-methyl-1H-imidazo[4,5-c]pyridin-6-yl)amine], the Ki was 0.0483 µM. In the case of `CC(C)n1c([C@@H](C)O)nc2cnc(Nc3ccnc(N4CC[C@@H](O)[C@@H](F)C4)n3)cc21` [Example 658], the Ki is reported as 0.0443 µM. `Cc1nc2cnc(Nc3ccnc(N4CC[C@@](C)(O)[C@H](F)C4)n3)cc2n1C(C)C` [Example 674] gave a Ki of 0.073 µM. `CO[C@H]1CCN(c2nccc(Nc3cc4c(cn3)nc(C)n4C(C)C)n2)C[C@H]1F` (racemic) [Example 524, (±)-[2-((cis)-3-Fluoro-4-methoxypiperidin-1-yl)pyrimidin-4-yl]-(1-isopropyl-2-methyl-1H-imidazo[4,5-c]pyridin-6-yl)amine] gave a Ki of 0.0509 µM. With `CC(C)n1cnc2cnc(Nc3ccnc(N4CCCC(C(N)=O)C4)n3)cc21` (stereo not drawn) [Example 66, 1-(4-(1-isopropyl-1H-imidazo[4,5-c]pyridin-6-ylamino)pyrimidin-2-yl)piperidine-3-carboxamide] the Ki was 0.138 µM. Molecule `C[C@@H](O)c1nc2cnc(Nc3ccnc(N4CC[C@H](O)[C@H](F)C4)n3)cc2n1[C@H](C)C(F)(F)F` [Example 688] has a Ki of 0.107 µM. Molecule `Cc1nc2cnc(Nc3ccnc(-c4cnn(CCCN)c4)n3)cc2n1C(C)C` [Example 430, N-(2-(1-(3-aminopropyl)-1H-pyrazol-4-yl)pyrimidin-4-yl)-1-isopropyl-2-methyl-1H-imidazo[4,5-c]pyridin-6-amine] has a Ki of 0.0477 µM. Work on `CCC(C)n1cc(C(=O)NCCO)c2cnc(Nc3ccnc(-c4cnn(S(=O)(=O)C5CC5)c4)n3)cc21` (stereo not drawn) [Example 703] yielded a Ki of 0.0025 µM. `CCNc1nc2cnc(Nc3ccnc(-c4cnn(S(=O)(=O)C5CC5)c4)n3)cc2n1C(C)C` [Example 556] was tested, and the Ki was 0.00385 µM. Work on `CC(C)n1c(CO)nc2cnc(Nc3ccnc(N4CC[C@@](C)(O)[C@H](F)C4)n3)cc21` [Example 675] yielded a Ki of 0.112 µM. `Cc1nc2cnc(Nc3ccnc(N4CC[C@H](O)C[C@@H]4C)n3)cc2n1C(C)C` [Example 600] gave a Ki of 0.0758 µM. In the case of `C[C@H](n1c([C@@H](C)O)nc2cnc(Nc3ccnc(N4CC[C@](C)(O)[C@H](F)C4)n3)cc21)C(F)(F)F` [Example 676], the Ki is reported as 0.00818 µM. Molecule `CO[C@H]1CCN(c2nccc(Nc3cc4c(cn3)nc([C@H](C)O)n4[C@@H](C)C(F)(F)F)n2)C[C@H]1F` [Example 684] has a Ki of 0.00767 µM. `COC1CCN(c2nccc(Nc3cc4c(cn3)nc(C)n4C(C)CC#N)n2)CC1` (stereo not drawn) [Example 349, 3-(6-((2-(4-Methoxypiperidin-1-yl)pyrimidin-4-yl)amino)-2-methyl-1H-imidazo[4,5-c]pyridin-1-yl)butanenitrile] was tested, and the Ki was 0.692 µM. Molecule `Cc1nc2cnc(Nc3ccnc(-c4cnoc4)n3)cc2n1C(C)C` [Example 366] has a Ki of 0.0147 µM. `CC(C)n1c(CO)nc2cnc(Nc3ccnc(N4C[C@@H]5C[C@H]4CO5)n3)cc21` [Example 691] showed a Ki of 0.736 µM. Work on `CO[C@@H]1CCN(c2nccc(Nc3cc4c(cn3)nc([C@@H](C)O)n4C(C)C)n2)C[C@@H]1F` [Example 659] yielded a Ki of 0.0393 µM. With `CC(C)n1c(CO)nc2cnc(Nc3ccnc(N4CC[C@H](O)[C@H](C(F)(F)F)C4)n3)cc21` (racemic) [Example 626, (±)-(cis)-1-(4-(2-(Hydroxymethyl)-1-isopropyl-1H-imidazo[4,5-c]pyridin-6-ylamino)pyrimidin-2-yl)-3-(trifluoromethyl)piperidin-4-ol] the Ki was 1.25 µM. In the case of `Cc1nn(CCO)cc1-c1cn(C(C)C)c2cc(Nc3ccnc(-c4cnn(S(=O)(=O)C5CC5)c4)n3)ncc12` [Example 437, 2-(4-(6-(2-(1-(cyclopropylsulfonyl)-1H-pyrazol-4-yl)pyrimidin-4-ylamino)-1-isopropyl-1H-pyrrolo[3,2-c]pyridin-3-yl)-3-methyl-1H-pyrazol-1-yl)ethanol], the Ki is reported as 0.00121 µM. In the case of `C[C@H](n1c(CO)nc2cnc(Nc3ccnc(N4CC[C@H](O)[C@H](F)C4)n3)cc21)C(C)(F)F` (racemic) [Example 644, (±)-(cis)-1-(4-(1-((S)-3,3-Difluorobutan-2-yl)-2-(hydroxymethyl)-1H-imidazo[4,5-c]pyridin-6-ylamino)pyrimidin-2-yl)-3-fluoropiperidin-4-ol], the Ki is reported as 0.00345 µM. `CC(C)n1c(CO)nc2cnc(Nc3ccnc(N4CC[C@@H](O)[C@H](C)C4)n3)cc21` (racemic) [Example 630, (±)-(trans)-1-(4-(2-(Hydroxymethyl)-1-isopropyl-1H-imidazo[4,5-c]pyridin-6-ylamino)pyrimidin-2-yl)-3-methylpiperidin-4-ol] was tested, and the Ki was 0.202 µM. With `Cc1cc(-c2nccc(Nc3cc4c(cn3)nc(C)n4C(C)C)n2)sn1` [Example 360, 1-Isopropyl-2-methyl-N-(2-(3-methylisothiazol-5-yl)pyrimidin-4-yl)-1H-imidazo[4,5-c]pyridin-6-amine] the Ki was 0.0297 µM. With `CC(C)n1c(CO)nc2cnc(Nc3ccnc(-c4cnc(N)s4)n3)cc21` [Example 615, {6-[2-(2-Aminothiazol-5-yl)pyrimidin-4-ylamino]-1-isopropyl-1H-imidazo[4,5-c]pyridin-2-yl}methanol] the Ki was 0.00338 µM. For `Cc1nc2cnc(Nc3ccnc(N4CCC5(CCO5)CC4)n3)cc2n1C(C)C` [Example 495, N-(2-(1-Oxa-7-azaspiro[3.5]nonan-7-yl)pyrimidin-4-yl)-1-isopropyl-2-methyl-1H-imidazo[4,5-c]pyridin-6-amine], the Ki was 0.0717 µM. In the case of `Cc1nc2cnc(Nc3ccnc(-c4cnn(S(=O)(=O)C5CCNC5)c4)n3)cc2n1C(C)C` (stereo not drawn) [Example 258, 1-Isopropyl-2-methyl-N-(2-(1-(pyrrolidin-3-ylsulfonyl)-1H-pyrazol-4-yl)pyrimidin-4-yl)-1H-imidazo[4,5-c]pyridin-6-amine], the Ki is reported as 0.00425 µM.
